Source: US9573913B2, “Cathepsin cysteine protease inhibitors” (Merck Sharp & Dohme Corp., priority 2013, dated 2017)

Experiments:
[1] = target: human cathepsin K (UniProt P43236); assay: Cathepsin K Assay (hrbCat K); assay type: biochemical; settings: Z-Leu-Arg-AMC substrate, pH 5.5, 15 min preincubation; read-out: hrbCat K (IP (nM))
Procedure, shortened: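 Human cathepsin K (0.4 nM) was preincubated 15 min at room temperature with compound in 50 mM MES pH 5.5, 2.5 mM EDTA, 2.5 mM DTT and 10% DMSO. Inhibition was fitted to a dose-response model.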

[2] = target: T1, human cathepsin F (Homo sapiens, UniProt Q9UBX1); assay: Cathepsin F assay (hCat F); assay type: biochemical; settings: Z-Phe-Arg-AMC substrate, pH 5.5, 15 min preincubation; read-out: hCat F (IP (nM))
T1 sequence (Q9UBX1 271-484): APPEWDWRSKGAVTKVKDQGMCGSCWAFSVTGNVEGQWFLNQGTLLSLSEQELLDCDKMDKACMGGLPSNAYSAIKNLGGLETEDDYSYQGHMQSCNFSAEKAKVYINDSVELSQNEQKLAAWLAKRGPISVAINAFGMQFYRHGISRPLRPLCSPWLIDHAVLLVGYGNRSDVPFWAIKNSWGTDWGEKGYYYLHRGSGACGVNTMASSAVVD
Procedure, shortened: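 Enzyme (10 nM) was preincubated 15 min at room temperature with compounds (1/3 DMSO dilution series, 500–0.025 μM) in 50 mM MES pH 5.5, 2.5 mM EDTA, 2.5 mM DTT, 10% DMSO. Z-Phe-Arg-AMC (8 μM) was added and AMC fluorescence (Ex 360/Em 460 nm) followed for 20 min. % inhibition was fitted to dose-response curves.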

Row | Structure (SMILES) | IC50 [1] [nM] | IC50 [2] [nM]
1 | CC(C)(C)c1nc([C@@H]2CC[C@H](F)C[C@H]2C(=O)NC2(C#N)CC2)c(-c2ccc(N3CCS(=O)(=O)CC3)cc2)s1 [Example 25, (1R,2R,5S)-2-(2-(tert-butyl)-5-(4-(1,1-dioxidothiomorpho-lino)phenyl)thiazol-4-yl)-N-(1-cyanocyclopropyl)-5-fluorocyclohexane-carboxamide] | 3.3 | 9260
2 | N#CC1(NC(=O)[C@@H]2CCCC[C@H]2c2nc(-c3ccc(F)cc3)sc2-c2ccc(N3CCS(=O)(=O)CC3)cc2)CC1 [Example 27, (1R,2R)-N-(1-cyanocyclopropyl)-2-(5-(4-(1,1-dioxidothiomorpho-lino)phenyl)-2-(4-fluorophenyl)thiazol-4-yl)cyclohexane-carboxamide] | 0.6 | 1000
3 | N#CC1(NC(=O)[C@@H]2CC(F)(F)CC[C@H]2c2nc(-c3ccc(F)cc3)sc2-c2ccc(C(=O)N3CCOCC3)cc2)CC1 [Example 28, (1R,2R)-N-(1-cyanocyclopropyl)-5,5-difluoro-2-(2-(4-fluorophenyl)-5-(4-(morpholine-4-carbonyl)phenyl)thi-azol-4-yl)cyclohexane-carboxamide] | 2.3 | 63
4 | CS(=O)(=O)N1CCN(C(=O)c2ccc(-c3sc(-c4ccc(F)cc4)nc3[C@@H]3CCC(F)(F)C[C@H]3C(=O)NC3(C#N)CC3)cc2)CC1 [Example 29, (1R,2R)-N-(1-cyanocyclopropyl)-5,5-difluoro-2-(2-(4-fluorophenyl)-5-(4-(4-(methylsulfonyl)piperazine-1-carbonyl)phenyl)thi-azol-4-yl)cyclohexane-carboxamide] | 1.9 | 57
5 | N#CC1(NC(=O)[C@@H]2CC(F)(F)CC[C@H]2c2nc(-c3ccc(F)cc3)sc2-c2ccc(C(=O)N3CCNC(=O)C3)cc2)CC1 [Example 30, (1R,2R)-N-(1-cyanocyclopropyl)-5,5-difluoro-2-(2-(4-fluorophenyl)-5-(4-(3-oxopiperazine-1-carbonyl)phenyl)thi-azol-4-yl)cyclohexane-carboxamide] | 2.2 | 51
6 | N#CC1(NC(=O)[C@@H]2CC(F)(F)CC[C@H]2c2nc(-c3ccc(F)cc3)sc2-c2ccc(C(=O)N3CCC(O)CC3)cc2)CC1 [Example 31, (1R,2R)-N-(1-cyanocyclopropyl)-5,5-difluoro-2-(2-(4-fluorophenyl)-5-(4-(4-hydroxypiperidine-1-carbonyl)phenyl)thi-azol-4-yl)cyclohexane-carboxamide] | 3.4 | 73
7 | N#CC1(NC(=O)[C@@H]2CCCC[C@H]2c2nc(-c3ccc(F)cc3)sc2-c2ccc(C(=O)N3CCOCC3)cc2)CC1 [Example 32, (1R,2R)-N-(1-cyanocyclopropyl)-2-(2-(4-fluorophenyl)-5-(4-(morpholine-4-carbonyl)phenyl)thi-azol-4-yl)cyclohexane-carboxamide] | 65.1 | 422
8 | CS(=O)(=O)N1CCN(C(=O)c2ccc(-c3sc(-c4ccc(F)cc4)nc3[C@@H]3CCCC[C@H]3C(=O)NC3(C#N)CC3)cc2)CC1 [Example 33, (1R,2R)-N-(1-cyanocyclopropyl)-2-(2-(4-fluorophenyl)-5-(4-(4-(methylsulfonyl)piperazine-1-carbonyl)phenyl)thi-azol-4-yl)cyclohexane-carboxamide] | 47 | 410
9 | N#CC1(NC(=O)[C@@H]2CCCC[C@H]2c2nc(-c3ccc(F)cc3)sc2-c2ccc(C(=O)N3CCC(O)CC3)cc2)CC1 [Example 34, (1R,2R)-N-(1-cyanocyclopropyl)-2-(2-(4-fluorophenyl)-5-(4-(4-hydroxypiperidine-1-carbonyl)phenyl)thi-azol-4-yl)cyclohexane-carboxamide] | 101 | 868
10 | N#CC1(NC(=O)[C@@H]2CCCC[C@H]2c2nc(-c3ccc(F)cc3)sc2-c2ccc(C(=O)N3CCNC(=O)C3)cc2)CC1 [Example 35, (1R,2R)-N-(1-cyanocyclopropyl)-2-(2-(4-fluorophenyl)-5-(4-(3-oxopiperazine-1-carbonyl)phenyl)thi-azol-4-yl)cyclohexane-carboxamide] | 64.5 | 667
11 | N#CC1(NC(=O)[C@@H]2CCCC[C@H]2c2nc(-c3ccc(C(F)(F)F)nc3)sc2-c2ccc(N3CCS(=O)(=O)CC3)cc2)CC1 [Example 38, (1R,2R)-N-(1-cyanocyclopropyl)-2-(5-(4-(1,1-dioxidothiomorpho-lino)phenyl)-2-(6-(trifluoromethyl)pyridin-3-yl)thiazol-4-yl)cyclohexane-carboxamide] | 1.8 | 2060
12 | N#CC1(NC(=O)[C@@H]2CCCC[C@H]2c2nc(N3CCOCC3)sc2-c2ccc(N3CCS(=O)(=O)CC3)cc2)CC1 [Example 40, (1R,2R)-N-(1-cyanocyclopropyl)-2-(5-(4-(1,1-dioxidothiomorpho-lino)phenyl)-2-morpholinothiazol-4-yl)cyclohexane-carboxamide] | 1.8 | ≥ 10000
13 | CC(C)(O)c1ccc(-c2nc([C@@H]3CCCC[C@H]3C(=O)NC3(C#N)CC3)c(-c3ccc(N4CCS(=O)(=O)CC4)cc3)s2)cc1 [Example 43, (1R,2R)-N-(1-cyanocyclopropyl)-2-(5-(4-(1,1-dioxidothiomorpho-lino)phenyl)-2-(4-(2-hydroxypropan-2-yl)phenyl)thiazol-4-yl)cyclohexane-carboxamide] | 1.2 | 1110
14 | N#CC1(NC(=O)[C@@H]2C[C@H](F)CC[C@H]2c2nc(-c3ccc(F)cc3)sc2-c2ccc(N3CCS(=O)(=O)CC3)cc2)CC1 [Example 45, (1R,2R,5R)-N-(1-cyanocyclopropyl)-2-(5-(4-(1,1-dioxidothiomorpho-lino)phenyl)-2-(4-fluorophenyl)thiazol-4-yl)-5-fluorocyclohexane-carboxamide] | 1.5 | 197
15 | N#CC1(NC(=O)[C@@H]2CCCC[C@H]2c2nc(-c3ccc(F)cn3)sc2-c2ccc(N3CCS(=O)(=O)CC3)cc2)CC1 [Example 47, (1R,2R)-N-(1-cyanocyclopropyl)-2-(5-(4-(1,1-dioxidothiomorpho-lino)phenyl)-2-(5-fluoropyridin-2-yl)thiazol-4-yl)cyclohexane-carboxamide] | 1.3 | 1520

The remaining compounds from weak to strong by IC50 [1], led by results:

Row | IC50 [1] [nM] | IC50 [2] [nM] | Structure (SMILES)
16 | 1.2 | 945 | N#CC1(NC(=O)[C@@H]2CCCC[C@H]2c2nc(-c3ccc(Cl)cn3)sc2-c2ccc(N3CCS(=O)(=O)CC3)cc2)CC1 [Example 41, (1R,2R)-2-(2-(5-chloropyridin-2-yl)-5-(4-(1,1-dioxidothiomorpho-lino)phenyl)thiazol-4-yl)-N-(1-cyanocyclopropyl) cyclohexanecarbox-amide]
17 | 1.1 | 1980 | N#CC1(NC(=O)[C@@H]2C[C@@H](F)CC[C@H]2c2nc(-c3cccnc3)sc2-c2ccc(N3CCS(=O)(=O)CC3)cc2)CC1 [Example 46, (1R,2R,5S)-N-(1-cyanocyclopropyl)-2-(5-(4-(1,1-dioxidothiomorpho-lino)phenyl)-2-(pyridin-3-yl)thiazol-4-yl)-5-fluorocyclohexane-carboxamide]
18 | 1 | 1360 | N#CC1(NC(=O)[C@@H]2CCCC[C@H]2c2nc(-c3ccon3)sc2-c2ccc(N3CCS(=O)(=O)CC3)cc2)CC1 [Example 39, (1R,2R)-N-(1-cyanocyclopropyl)-2-(5-(4-(1,1-dioxidothiomorpho-lino)phenyl)-2-(isoxazol-3-yl)thiazol-4-yl)cyclohexane-carboxamide]
19 | 0.8 | 650 | N#CC1(NC(=O)[C@@H]2CCCC[C@H]2c2nc(-c3cncc(Cl)c3)sc2-c2ccc(N3CCS(=O)(=O)CC3)cc2)CC1 [Example 48, (1R,2R)-2-(2-(5-chloropyridin-3-yl)-5-(4-(1,1-dioxidothiomorpho-lino)phenyl)thiazol-4-yl)-N-(1-cyanocyclopropyl) cyclohexanecarbox-amide]
20 | 0.7 | 790 | N#CC1(NC(=O)[C@@H]2CCCC[C@H]2c2nc(-c3cncc(F)c3)sc2-c2ccc(N3CCS(=O)(=O)CC3)cc2)CC1 [Example 44, (1R,2R)-N-(1-cyanocyclopropyl)-2-(5-(4-(1,1-dioxidothiomorpho-lino)phenyl)-2-(5-fluoropyridin-3-yl)thiazol-4-yl)cyclohexane-carboxamide]
21 | 0.5 | 2620 | N#CC1(NC(=O)[C@@H]2CCCC[C@H]2c2nc(-c3cccnc3)sc2-c2ccc(N3CCS(=O)(=O)CC3)cc2)CC1 [Example 37, (1R,2R)-N-(1-cyanocyclopropyl)-2-(5-(4-(1,1-dioxidothiomorpho-lino)phenyl)-2-(pyridin-3-yl)thiazol-4-yl)cyclohexane-carboxamide]
22 | 0.5 | 49 | N#CC1(NC(=O)[C@@H]2CC(F)(F)CC[C@H]2c2nc(-c3cccnc3)sc2-c2ccc(N3CCS(=O)(=O)CC3)cc2)CC1 [Example 49, (1R,2R)-N-(1-cyanocyclopropyl)-2-(5-(4-(1,1-dioxidothiomorpho-lino)phenyl)-2-(pyridin-3-yl)thiazol-4-yl)-5,5-difluorocyclohexane-carboxamide]
23 | 0.3 | 35 | N#CC1(NC(=O)[C@@H]2CC(F)(F)CC[C@H]2c2nc(-c3ccc(F)cc3)sc2-c2ccc(N3CCS(=O)(=O)CC3)cc2)CC1 [Example 26, (1R,2R)-N-(1-cyanocyclopropyl)-2-(5-(4-(1,1-dioxidothiomorpho-lino)phenyl)-2-(4-fluorophenyl)thiazol-4-yl)-5,5-difluorocyclohexane-carboxamide]
